Experimental data taken from US9399639B2, “Substituted azaindole compounds, salts, pharmaceutical compositions thereof and methods of use” (Calitor Sciences, LLC, priority 2012, dated 2016).

Assays:
[1] = Compound stability in human liver microsomes; type: in vitro ADME; settings: 1 μM
Experimental: (§1) Human or rat liver microsomes incubations were conducted in duplicate in polypropylene tubes. […] Compounds were dissolved in DMSO and diluted with PBS such that the final concentration of DMSO was 0.05%. The enzymatic reactions were commenced with the addition of protein after a 3 min preincubation and incubated in a water bath open to the air at 37° C. Reactions were terminated at various time points (0, 5, 10, 15, 30, 60 min) by adding equal volume of ice-cold acetonitrile. The samples were stored at −80° C. until LC/MS/MS assays.
(§2) The concentrations of compounds in the incubation mixtures of human (or rat) liver microsomes were determined by a LC/MS/MS method. The ranges of the linearity in the concentration range were determined for each tested compounds.
(§3) A parallel incubation was performed using denatured microsomes as the negative control, and reactions were terminated at various time points (for example, 0, 15, 60 min) after incubation at 37° C.
(§4) Dextromethorphan (70 μM) was selected as the positive control, and reactions were terminated at various time points (0, 5, 10, 15, 30, 60 min) after incubation at 37° C. Both positive and negative control samples were included in each assay to ensure the integrity of the microsomal incubation system.
(§5) Alternatively, the stability of some of the compounds disclosed herein in human (or rat) liver microsomes were also conducted in the following protocol. The incubations were conducted in duplicate in polypropylene tubes. […] Compounds were dissolved in DMSO and diluted with K-buffer such that the final concentration of DMSO was 0.2%. The enzymatic reactions were commenced with the addition of 15 μL of NADPH (final concentration: 2 mM) after 10 min preincubation and incubated in a 37° C. incubator. Reactions were terminated at various time points (0, 15, 30, 60 min) by adding 135 μL acetonitrile (contain IS). Protein is removed by centrifugation with 4,000 rpm, 10 min.
(§6) In the above protocol, ketanserin (1 μM) was selected as the positive control, and reactions were terminated at various time points (0, 15, 30, 60 min) after incubation at 37° C. The positive control sample was included in each assay to ensure the integrity of the microsomal incubation system.
(§7) The concentrations of compounds in liver microsome incubations were plotted as a percentage of the relevant zero time point control for each reaction. The in vivo CLint were extrapolated (ref: Naritomi et al., Prediction of human hepatic clearance from in vivo animal experiments and in vitro metabolic studies with liver microsomes from animals and humans, Drug Metab. Dispos., 2001, 29: 1316-1324.) […]

[2] = Compound stability in rat liver microsomes; type: in vitro ADME; settings: 1 μM
Experimental: as §1, §2, §3, §4, §5, §6, §7

Colo-205 Tumor Xenograft = test: Colo-205 tumor xenograft model, tumor growth inhibition; type: in vivo, athymic nude mice; settings: Colo-205 xenograft, p.o., 15 days
Experimental: The efficacy of compounds disclosed herein is evaluated in a standard murine model of tumorigenesis. Human tumor cells (i.e., Colo-205 Tumor Xenograft models) are expended in culture, harvested, and injected subcutaneously onto the rear flank of 6-7 week old female athymic nude mice (BALB/cA nu/nu, Shanghai SLAC Laboratory Animal, Co.) (n=10 for vehicle group, n=8 for each dosing group). When tumor reaches a volume of 100-250 mm^3, animals are randomly divided into vehicle control (for example, 5% PEG400+5% Solutol HS 15 in water or 5% EtOH+5% CremophorEL+1% HCl (11.7%), pH 2.2 in water) and compound groups. Subsequent administration of compound by oral gavage (for example, 6-60 mpk/dose, dissolved in 5% PEG400+5% Solutol HS 15 in water or 5% EtOH+5% CremophorEL+1% HCl (11.7%), pH 2.2 in water) begins anywhere from day 0 to day 15 post tumor cell challenge and generally continues with once a day for the duration of the experiment.
Progression of tumor growth is assessed by tumor volumes and recorded as a function of time. The long (L) and short (W) axes of the subcutaneous tumors are measured with calipers twice weekly, and the tumor volume (TV) calculated as (L×W^2)/2). TGI is calculated from the difference between the median tumor volumes of vehicle-treated and drug-treated mice, expressed as a percentage of the median tumor volume of the vehicle-treated control group, by the following relation:
Initial statistical analysis is done by repeated measures analysis of variance (RMANOVA), Followed by Scheffe post-hoc testing for multiple comparisons. Vehicle alone (2% HPMC+1% Tween-80, or the like) is the negative control.
The compouds described herein were also administrated orally (p.o.) once a day (QD) or (BID) for 15 days in Colo-205 xenograft animal model. At doses of 20 mg/kg, the compouds produced statistically significant inhibition of growth of certain tumors grown subcutaneously in athymic nude mice.

[3] = Pharmacokinetics in SD rats; type: in vivo; settings: vemurafenib dosed
Description: (§8) Compounds disclosed herein are prodrugs. […] However, the prodrug compounds are modified in vivo to produce a parent compound that has known inhibitory activities against certain protein kinases. Kinase inhibition activity of prodrug compounds is established by quantitating the blood or plasma levels of parent compound after prodrug administration. In vivo blood or plasma levels are reported as Cmax (maximum blood or plasma concentration) and AUC (area under curve from zero to a certain period of time or infinity, a measure of total drug exposure). Methods of measuring Cmax, AUC and other pharmacokinetic parameters in dogs and rats are provided in Example C.
(§9) The LC/MS/MS system used in the analysis consists of an Agilent 1200 Series vacuum degasser, binary pump, well-plate autosampler, thermostated column compartment, the Agilent G6430 TripleQuadrupole Mass Spectrometer with an electrospray ionization (ESI) source. Quantitative analysis was carried out using MRM mode. The parameters for MRM transitions are in the Table A.
(§10) An Agilent XDB-C18, 2.1×30 mm, 3.5 μM column was used for the analysis. 5 μL of the samples were injected. Analysis condition: The mobile phase was 0.1% formic acid in water (A) and 0.1% formic acid in methanol (B). The flow rate was 0.4 mL/min. And the gradient of Mobile phase was in the Table B.
(§11) Alternatively, an Agilent 6330 series LC/MS/MS spectrometer equipped with G1312A binary pumps, a G1367A autosampler and a G1314C UV detector was used in the analysis. An ESI source was used on the LC/MS/MS spectrometer. The analysis was done in positive ion mode as appropriate and the MRM transition for each analyte was optimized using standard solution. A Capcell MP-C18 100×4.6 mm I.D., […] column (Phenomenex, Torrance, Calif., USA) was used during the analysis. The mobile phase was 5 mM ammonia acetate, 0.1% MeOH in water (A): 5 mM ammonia acetate, 0.1% MeOH in acetonitrile (B) (70:30, v/v). The flow rate was 0.6 mL/min. Column was maintained at ambient temperature. 20 μL of the samples were injected.
(§12) Selected compounds of the invention and Vemurafenib were assessed in pharmacokinetic studies in mice, rats, dogs or monkeys. The compounds were administered as a water solution, 2% HPMC+1% TWEEN® 80 in water solution, 5% DMSO+5% solutol in saline, 4% MC or capsule. For the intravenous administration, the animals were generally given at 1 or 2 mg/kg dose. For the oral (p.o.) dosing, mice and rats were generally given 5 or 10 mg/kg dose, and dogs and monkeys were generally given 7-100 mg/kg dose. The blood samples (0.3 mL) were drawn at 0.25, 0.5, 1.0, 2.0, 3.0, 4.0, 6.0, 8.0, 12 and 24 h time points or 0.083, 0.25, 0.5, 1.0, 2.0, 4.0, 6.0, 8.0 and 24 h time points and centrifuged at 3,000 or 4000 rpm for 2 to 10 min. The plasma solutions are collected and stored at −20° C. or −70° C. before analyzed by LC/MS/MS as described above.

[4] = Pharmacokinetics in beagle dogs; type: in vivo; settings: vemurafenib dosed
Description: as §8, §9, §10, §11, §12

B-Raf = B-Raf V600E vs wild-type, purified kinase assays; cited from earlier work
[5] = cited from earlier work
[6] = Sprague-Dawley, rat, plasma, IV 1 mg/kg
[7] = Sprague-Dawley, rat, plasma, PO 10 mg/kg

Human T1/2 [1] | Rat T1/2 [2] | Compound | TGI % (on the last day of dosing) (Colo-205 Tumor Xenograft; 6 mg/kg/qd) [%] | TGI % (on the last day of dosing) (Colo-205 Tumor Xenograft; 20 mg/kg/bid) [%] | TGI % (on the last day of dosing) (Colo-205 Tumor Xenograft; 20 mg/kg/qd) [%] | TGI % (on the last day of dosing) (Colo-205 Tumor Xenograft; 60 mg/kg/qd) [%] | also measured
∞ | ∞ | CCCS(=O)(=O)Nc1ccc(F)c(C(=O)c2cn(C(C)OP(=O)([O-])[O-])c3ncc(-c4ccc(Cl)cc4)cc23)c1F.[Na+].[Na+] (centres unmarked) [Ex. 32, sodium 1-(5-(4-chlorophenyl)-3-(2,6-difluoro-3-(propylsulfonamido)benzoyl)-1H-pyrrolo[2,3-b]pyridin-1-yl)ethyl phosphate] | 29 | 102 | 68 | 110 | –
∞ | ∞ | CCCS(=O)(=O)Nc1ccc(F)c(C(=O)c2cn(COP(=O)([O-])[O-])c3ncc(-c4ccc(Cl)cc4)cc23)c1F.[Na+].[Na+] [Ex. 25, sodium (5-(4-chlorophenyl)-3-(2,6-difluoro-3-(propylsulfonamido)benzoyl)-1H-pyrrolo[2,3-b]pyridin-1-yl)methyl phosphate] | 41 | 95 | 59 | 108 | –
– | – | CCCS(=O)(=O)Nc1ccc(F)c(C(=O)c2c[nH]c3ncc(-c4ccc(Cl)cc4)cc23)c1F [Vemurafenib, N-(3-(5-(4-chlorophenyl)-1H-pyrrolo[2,3-b]pyridine-3-carbonyl)-2,4-difluorophenyl)propane-1-sulfonamide] | 33 | 101 | 73 | 104 | F ([3]; PO 10 mg/kg): 104%; AUC(0-t) [3, 6]: 25200 ng·h/mL; half-life [3, 6]: 3.75 h; AUC(0-t) [3, 7]: 261000 ng·h/mL; Cmax [3, 7]: 25400 ng/mL; Tmax [3, 7]: 4 h; half-life [3, 7]: 3.54 h; F ([4]; PO 10 mg/kg): 33.4%; AUC(0-t) ([4]; dog, plasma, IV 1 mg/kg): 4880 ng·h/mL; half-life ([4]; dog, plasma, IV 1 mg/kg): 1.59 h; AUC(0-t) ([4]; dog, plasma, PO 10 mg/kg): 16500 ng·h/mL; Cmax ([4]; dog, plasma, PO 10 mg/kg): 2150 ng/mL; Tmax ([4]; dog, plasma, PO 10 mg/kg): 2 h; half-life ([4]; dog, plasma, PO 10 mg/kg): 3.9 h; selectivity for the V600E mutation over the wild-type kinase (B-Raf): 3 fold; solubility in water [5]: low solubility in water
